Data published in patent publication US10912780B2, “Heterocyclic compounds useful as anti-bacterial agents and method for production thereof” (Bugworks Research, Inc., priority 2017, dated 2021).
pIC50: −log10 of the molar value. Converted amounts (≈) assume the structure as drawn.

Tests used:
E. coli DNA gyrase = E. coli DNA gyrase (Escherichia coli, UniProt P0AES4+P0AES6); assay: biochemical; settings: supercoiling assay
[1] = system: Acinetobacter baumannii ATCC 19606; assay: Minimum Inhibitory Concentration (MIC) in LB media; format: cell-based; settings: Acinetobacter baumannii, ATCC19606;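 also: twofold compound dilutions from DMSO stocks in LB broth microplates, overnight incubation at 37 °C, growth read by absorbance at 600 nm, with DMSO and sterility controls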
[2] = system: Pseudomonas aeruginosa ATCC 27853; assay: Minimum Inhibitory Concentration (MIC) in LB media; format: cell-based; settings: Pseudomonas aeruginosa, ATCC27853, read-out: Minimum Inhibitory Concentration P. aeruginosa ATCC 27853
Excerpt: (§1) The compounds of Formula (I) are of interest due to their potent antibacterial effects. The ability of the invention compounds disclosed herein to achieve an antibacterial effect may be evaluated with regard to their ability to inhibit the growth of bacterial species like Escherichia coli ATCC 25922, Staphylococcus aureus ATCC 29213, Klebsiella pneumoniae ATCC 13883, Acinetobacter baumannii ATCC 19606, Pseudomonas aeruginosa ATCC 27853, Enterococcus faecalis ATCC 29212 and Enterococcus faecalis ATCC 29212 using an assay based on the following Minimum Inhibitory Concentration (MIC) protocol:
(§2) The medium sterility is checked by incubating at 37° C. for a period of 48 h.
(§3) Bacterial cultures that are stored as glycerol stocks at −80° C. are sub cultured on LB agar plates to obtain isolated colonies. A single colony of each strain is cultured in LB broth. The cultures are incubated at 37 C, 200 rpm till they reach an optical density (OD at 600 nm) of 0.8 to 1. […] Test compounds are dissolved in dimethyl sulfoxide (DMSO) to a stock concentration of 4 mg/ml. A twofold dilution series of this DMSO stock is prepared in a 96 well V bottom microtitre plate from rows A to H. A 3 μL volume of these dilutions are transferred to a 96-well flat bottom microtitre assay plate. Controls to monitor the effects of DMSO and media sterility are included. Each well is inoculated with 150 μL of the above diluted culture. The plates are incubated at 37° C. overnight in a humidified incubator. The following morning, the plates are read using a Spectrophotometer at 600 nm wavelength. […] The antibacterial activity (MIC) determined against representative Gram positive (S. aureus, E. faecalis) and Gram negative (E.coli, -P. aeruginosa and A. baumannii) pathogen were reported Table 1.

[3] = system: Enterococcus faecalis ATCC 29212; assay: Minimum Inhibitory Concentration (MIC) in LB media; format: cell-based; settings: Enterococcus faecalis, ATCC29212, read-out: Minimum Inhibitory Concentration E. faecalis ATCC 29212
Excerpt: as §1, §2, §3

[4] = system: Staphylococcus aureus ATCC 29213; assay: Minimum Inhibitory Concentration (MIC) in LB media; format: cell-based; settings: Staphylococcus aureus, ATCC29213, read-out: Minimum Inhibitory Concentration S. aureus ATCC 29213
Excerpt: as §1, §2, §3

[5] = system: Escherichia coli ATCC 25922; assay: Minimum Inhibitory Concentration (MIC) in LB media; format: cell-based; settings: Escherichia coli, ATCC25922, read-out: Minimum Inhibitory Concentration E. coli ATCC 25922
Excerpt: as §1, §2, §3

[6] = system: Klebsiella pneumoniae ATCC 13883; assay: Minimum Inhibitory Concentration (MIC) in LB media; format: cell-based; settings: Klebsiella pneumoniae, ATCC13883, read-out: Minimum Inhibitory Concentration K. pneumoniae ATCC 13883
Excerpt: as §1, §2, §3

E. coli topoisomerase IV = E. coli topoisomerase IV (Escherichia coli, UniProt P0AFI2+P20083); assay: biochemical; settings: decatenation assay; read-out: E. coli Topo IV IC50
Chain of E. coli topoisomerase IV (P20083 whole entry): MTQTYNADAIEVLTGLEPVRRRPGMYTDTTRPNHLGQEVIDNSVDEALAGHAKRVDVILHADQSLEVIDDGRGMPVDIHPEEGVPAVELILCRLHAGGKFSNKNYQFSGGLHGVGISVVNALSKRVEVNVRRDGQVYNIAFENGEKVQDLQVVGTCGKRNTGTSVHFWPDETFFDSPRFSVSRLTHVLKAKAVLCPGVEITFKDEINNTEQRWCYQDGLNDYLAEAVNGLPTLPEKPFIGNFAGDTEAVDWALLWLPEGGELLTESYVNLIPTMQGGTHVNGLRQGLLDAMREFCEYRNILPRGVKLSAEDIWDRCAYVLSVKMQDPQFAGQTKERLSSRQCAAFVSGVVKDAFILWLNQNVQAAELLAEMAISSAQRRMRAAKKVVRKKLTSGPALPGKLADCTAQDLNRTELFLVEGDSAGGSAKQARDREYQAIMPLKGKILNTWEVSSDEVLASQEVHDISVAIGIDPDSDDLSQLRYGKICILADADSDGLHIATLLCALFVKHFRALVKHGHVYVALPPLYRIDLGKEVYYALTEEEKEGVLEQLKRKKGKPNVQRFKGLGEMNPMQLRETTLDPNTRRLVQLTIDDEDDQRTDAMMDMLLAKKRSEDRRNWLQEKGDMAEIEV
Chain of E. coli topoisomerase IV (P0AFI2 whole entry): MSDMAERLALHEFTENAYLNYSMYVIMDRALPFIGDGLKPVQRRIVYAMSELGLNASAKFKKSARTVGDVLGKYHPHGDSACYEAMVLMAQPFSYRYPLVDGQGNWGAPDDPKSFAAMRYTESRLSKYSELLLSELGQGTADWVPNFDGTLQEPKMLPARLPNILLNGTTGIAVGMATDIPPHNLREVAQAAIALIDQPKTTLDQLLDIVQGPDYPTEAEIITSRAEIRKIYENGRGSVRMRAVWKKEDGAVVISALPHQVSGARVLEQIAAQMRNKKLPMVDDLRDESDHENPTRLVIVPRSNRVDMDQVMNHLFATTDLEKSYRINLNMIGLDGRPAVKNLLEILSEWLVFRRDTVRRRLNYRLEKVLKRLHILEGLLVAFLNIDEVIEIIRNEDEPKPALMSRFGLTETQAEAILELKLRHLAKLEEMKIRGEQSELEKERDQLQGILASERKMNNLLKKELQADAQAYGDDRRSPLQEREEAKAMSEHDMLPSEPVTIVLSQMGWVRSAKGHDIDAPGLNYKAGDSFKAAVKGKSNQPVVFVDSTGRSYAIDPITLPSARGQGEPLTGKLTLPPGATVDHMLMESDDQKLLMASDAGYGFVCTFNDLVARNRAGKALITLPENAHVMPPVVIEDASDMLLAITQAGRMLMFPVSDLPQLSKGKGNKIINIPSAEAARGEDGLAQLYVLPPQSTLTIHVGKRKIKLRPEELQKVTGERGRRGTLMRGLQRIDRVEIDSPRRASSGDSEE

[7] = target: T1, human ether a go-go related gene (hERG) K+ channel (Homo sapiens, UniProt Q12809); assay: hERG inhibition assay, QPatch HTX automated electrophysiology; format: cell-based; settings: CHO cell line stably expressing hERG, whole-cell patch clamp, maximum test concentration 300 μM
T1 construct: Chinese Hamster Ovary cell line stably expressing the full-length hERG potassium channel; expressed in transfected cells
T1 sequence (Q12809 whole entry): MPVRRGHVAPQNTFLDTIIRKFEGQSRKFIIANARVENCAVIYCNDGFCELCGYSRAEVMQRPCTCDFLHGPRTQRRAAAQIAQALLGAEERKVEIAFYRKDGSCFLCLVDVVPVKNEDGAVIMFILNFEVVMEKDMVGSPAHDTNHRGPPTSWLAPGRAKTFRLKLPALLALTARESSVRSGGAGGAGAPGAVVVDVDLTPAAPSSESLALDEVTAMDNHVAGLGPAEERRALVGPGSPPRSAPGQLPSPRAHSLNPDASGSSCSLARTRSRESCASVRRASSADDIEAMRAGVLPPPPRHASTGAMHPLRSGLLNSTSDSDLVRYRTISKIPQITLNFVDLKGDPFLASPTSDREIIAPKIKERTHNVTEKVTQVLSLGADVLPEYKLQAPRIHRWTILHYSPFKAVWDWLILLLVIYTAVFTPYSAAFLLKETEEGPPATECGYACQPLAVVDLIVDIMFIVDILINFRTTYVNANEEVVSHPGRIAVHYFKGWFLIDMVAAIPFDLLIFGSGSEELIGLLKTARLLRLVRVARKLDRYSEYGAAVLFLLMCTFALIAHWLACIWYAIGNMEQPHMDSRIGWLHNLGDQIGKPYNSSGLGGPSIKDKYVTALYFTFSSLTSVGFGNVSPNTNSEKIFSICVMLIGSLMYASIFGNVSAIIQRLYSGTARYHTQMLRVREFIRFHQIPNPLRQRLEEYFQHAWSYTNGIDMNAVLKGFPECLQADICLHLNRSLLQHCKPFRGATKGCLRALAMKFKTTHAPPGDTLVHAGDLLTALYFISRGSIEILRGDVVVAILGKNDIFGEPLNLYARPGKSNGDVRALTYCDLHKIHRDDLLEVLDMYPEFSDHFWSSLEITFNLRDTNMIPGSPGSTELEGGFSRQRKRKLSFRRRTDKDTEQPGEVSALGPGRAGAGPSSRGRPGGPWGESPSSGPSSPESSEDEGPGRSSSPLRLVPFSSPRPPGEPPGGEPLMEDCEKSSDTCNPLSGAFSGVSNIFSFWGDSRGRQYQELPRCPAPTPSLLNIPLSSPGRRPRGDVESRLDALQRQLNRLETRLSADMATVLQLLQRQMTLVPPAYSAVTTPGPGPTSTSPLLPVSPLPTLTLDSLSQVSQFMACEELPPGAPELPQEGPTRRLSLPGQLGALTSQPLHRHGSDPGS
Procedure: The compounds were tested for inhibition of the human ether a go-go related gene (hERG) K+ channel using QPatch HTX automated electrophysiology.
Compounds were solubilised to 100 mM in DMSO before dilution in HBPS to 300 μM.
Electrophysiological recordings were made from a Chinese Hamster Ovary cell line stably expressing the full-length hERG potassium channel. Single cell ionic currents were measured in whole-cell patch clamp configuration at room temperature (21-23° C.) using the QPatch HTX platform (Sophion). Intracellular solution contained (mM): 120 KF, 20 KCl, 10 EGTA, 10 HEPES and was buffered to pH 7.3. […] Cells were clamped at a holding potential of −80 mV. […] This sweep was repeated 10 times at 10 s intervals. hERG currents were measured from the tail step and referenced to the holding current. Compounds were then incubated for 2 minutes prior to a second measurement of ion channel current using an identical pulse train.

Chain of E. coli DNA gyrase (P0AES4 whole entry, one chain of several): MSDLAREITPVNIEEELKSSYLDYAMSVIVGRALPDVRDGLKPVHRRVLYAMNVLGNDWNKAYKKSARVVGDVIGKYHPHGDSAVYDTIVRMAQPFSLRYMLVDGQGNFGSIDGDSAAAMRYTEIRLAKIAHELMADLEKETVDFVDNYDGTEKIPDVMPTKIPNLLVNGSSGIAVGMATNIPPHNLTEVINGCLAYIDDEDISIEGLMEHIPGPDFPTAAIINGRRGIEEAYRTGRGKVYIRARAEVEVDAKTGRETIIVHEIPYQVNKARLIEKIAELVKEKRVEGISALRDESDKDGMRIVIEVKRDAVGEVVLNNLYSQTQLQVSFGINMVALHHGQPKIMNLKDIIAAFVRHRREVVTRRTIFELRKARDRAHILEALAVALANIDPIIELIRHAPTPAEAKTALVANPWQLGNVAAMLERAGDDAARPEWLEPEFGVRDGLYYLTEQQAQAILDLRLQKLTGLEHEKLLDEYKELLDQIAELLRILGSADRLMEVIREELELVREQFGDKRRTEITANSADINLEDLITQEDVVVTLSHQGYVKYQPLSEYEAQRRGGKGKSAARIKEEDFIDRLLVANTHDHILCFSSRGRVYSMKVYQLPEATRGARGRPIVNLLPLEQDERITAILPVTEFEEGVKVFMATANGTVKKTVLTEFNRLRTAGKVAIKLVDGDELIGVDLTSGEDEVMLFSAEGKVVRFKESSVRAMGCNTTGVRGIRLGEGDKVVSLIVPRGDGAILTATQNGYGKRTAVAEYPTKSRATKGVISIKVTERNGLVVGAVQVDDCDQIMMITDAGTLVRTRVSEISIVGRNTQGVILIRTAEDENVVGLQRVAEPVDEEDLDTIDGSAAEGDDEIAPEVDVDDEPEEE

Structure (SMILES)	pIC50 (E. coli DNA gyrase)	MIC [1] [µg/mL]	MIC [2] [µg/mL]	MIC [3] [µg/mL]	MIC [4] [µg/mL]	MIC [5] [µg/mL]	MIC [6] [µg/mL]	pIC50 (E. coli topoisomerase IV)	pIC50 [7]
Cn1c(=O)ccc2ccc(F)c(C[C@H](O)CNC[C@H]3CN(c4ccc5c(n4)NC(=O)CO5)C(=O)O3)c21 (single isomer, unassigned) [Example 18]	7.89	0.5 (≈ 1.01 µM)	1 (≈ 2.01 µM)	0.5 (≈ 1.01 µM)	0.125 (≈ 0.251 µM)	0.125 (≈ 0.251 µM)	0.125 (≈ 0.251 µM)	7.62	3.63
Cn1c(=O)ccc2ccc(F)c(CCNCC[C@H]3CN(c4cnc5c(n4)NC(=O)CO5)C(=O)O3)c21 (single isomer, unassigned) [Example 24]	7.60	0.5 (≈ 1.04 µM)	0.25 (≈ 0.518 µM)	0.125 (≈ 0.259 µM)	0.125 (≈ 0.259 µM)	0.06 (≈ 0.124 µM)	0.125 (≈ 0.259 µM)	6.91	< 3.52
Cn1c(=O)ccc2ccc(F)c(CCNCC[C@@H]3CN(c4cnc5c(n4)NC(=O)CO5)C(=O)O3)c21 (single isomer, unassigned) [Example 25]	7.77	0.5 (≈ 1.04 µM)	0.25 (≈ 0.518 µM)	0.5 (≈ 1.04 µM)	0.06 (≈ 0.124 µM)	0.06 (≈ 0.124 µM)	0.25 (≈ 0.518 µM)	7.68	4.00
CN1C(=O)CCc2ccc(F)c(CCNC[C@@H]3CN(c4ccc5c(n4)NC(=O)CO5)C(=O)O3)c21 [Example 3, (R)-6-(5-(((2-(7-fluoro-1-methyl-2-oxo-1,2,3,4-tetrahydroquinolin-8-yl)ethyl)amino)methyl)-2-oxooxazolidin-3-yl)-2H-pyrido[3,2-b][1,4]oxazin-3(4H)-one]		1 (≈ 2.13 µM)	16 (≈ 34.1 µM)	0.25 (≈ 0.533 µM)	0.5 (≈ 1.07 µM)	0.5 (≈ 1.07 µM)	2 (≈ 4.26 µM)		4.92
Cn1c(=O)cnc2ccc(F)c(CCNC[C@@H]3CN(c4ccc5c(n4)NC(=O)CO5)C(=O)O3)c21 [Example 5, (R)-6-(5-(((2-(6-fluoro-4-methyl-3-oxo-3,4-dihydroquinoxalin-5-yl)ethyl)amino)methyl)-2-oxooxazolidin-3-yl)-2H-pyrido[3,2-b][1,4]oxazin-3(4H)-one]		0.03 (≈ 0.064 µM)	1 (≈ 2.13 µM)	0.25 (≈ 0.534 µM)	0.015 (≈ 0.032 µM)	0.06 (≈ 0.128 µM)	0.125 (≈ 0.267 µM)		4.85
Cn1c(=O)ccc2ccc(F)c(CCNC[C@H]3CN(c4ccc5c(n4)NC(=O)CO5)C(=O)O3)c21 [Example 8, (S)-6-(5-(((2-(7-fluoro-1-methyl-2-oxo-1,2-dihydroquinolin-8-yl)ethyl)amino)methyl)-2-oxooxazolidin-3-yl)-2H-pyrido[3,2-b][1,4]oxazin-3(4H)-one]		≤ 0.015	0.25 (≈ 0.535 µM)	0.06 (≈ 0.128 µM)	≤ 0.015	0.03 (≈ 0.0642 µM)	0.03 (≈ 0.0642 µM)		4.77
O=C1COc2ccc(N3C[C@H](CNCCc4c(F)ccc5ncc(=O)n(CCO)c45)OC3=O)nc2N1 [Example 9, (S)-6-(5-(((2-(6-fluoro-4-(2-hydroxyethyl)-3-oxo-3,4-dihydroquinoxalin-5-yl)ethyl)amino)methyl)-2-oxooxazolidin-3-yl)-2H-pyrido[3,2-b][1,4]oxazin-3(4H)-one]	8.49	0.06 (≈ 0.12 µM)	1 (≈ 2.01 µM)	0.125 (≈ 0.251 µM)	0.03 (≈ 0.0602 µM)	0.06 (≈ 0.12 µM)	0.13 (≈ 0.261 µM)	6.76	4.16
O=C1COc2ccc(N3C[C@H](CNCCc4c(F)ccc5ccc(=O)n(CCO)c45)OC3=O)nc2N1 [Example 10, (S)-6-(5-(((2-(7-fluoro-1-(2-hydroxyethyl)-2-oxo-1,2-dihydroquinolin-8-yl)ethyl)amino)methyl)-2-oxooxazolidin-3-yl)-2H-pyrido[3,2-b][1,4]oxazin-3(4H)-one]	8.23	0.125 (≈ 0.251 µM)	0.5 (≈ 1.01 µM)	0.06 (≈ 0.121 µM)	0.015 (≈ 0.0302 µM)	0.03 (≈ 0.0603 µM)	0.06 (≈ 0.121 µM)	7.52	4.15
Cn1c(=O)cc(CN)c2ccc(F)c(CCNC[C@H]3CN(c4ccc5c(n4)NC(=O)CO5)C(=O)O3)c21 [Example 13, (S)-6-(5-(((2-(4-(aminomethyl)-7-fluoro-1-methyl-2-oxo-1,2-dihydroquinolin-8-yl)ethyl)amino)methyl)-2-oxooxazolidin-3-yl)-2H-pyrido[3,2-b][1,4]oxazin-3(4H)-one]	7.70	1 (≈ 2.01 µM)	0.5 (≈ 1.01 µM)	0.5 (≈ 1.01 µM)	0.25 (≈ 0.504 µM)	0.125 (≈ 0.252 µM)	0.25 (≈ 0.504 µM)	7.49	< 3.52
Cn1c(=O)ccc2ccc(F)c(CCNC[C@@H]3CN(c4cnc5c(n4)NC(=O)CO5)C(=O)O3)c21 [Example 14, (R)-6-(5-(((2-(7-fluoro-1-methyl-2-oxo-1,2-dihydroquinolin-8-yl)ethyl)amino)methyl)-2-oxooxazolidin-3-yl)-2H-pyrazino[2,3-b][1,4]oxazin-3(4H)-one]	7.89	0.25 (≈ 0.534 µM)	0.5 (≈ 1.07 µM)	0.06 (≈ 0.128 µM)	≤ 0.015	0.06 (≈ 0.128 µM)	0.06 (≈ 0.128 µM)	7.28	4.39
Cn1c(=O)ccc2ccc(F)c(CCNC[C@H]3CN(c4ncc5c(n4)NC(=O)CO5)C(=O)O3)c21 [Example 16, (S)-2-(5-(((2-(7-fluoro-1-methyl-2-oxo-1,2-dihydroquinolin-8-yl)ethyl)amino)methyl)-2-oxooxazolidin-3-yl)-6H-pyrimido[5,4-b][1,4]oxazin-7(8H)-one]	7.39	0.25 (≈ 0.534 µM)	1 (≈ 2.13 µM)	0.25 (≈ 0.534 µM)	0.06 (≈ 0.128 µM)	0.06 (≈ 0.128 µM)	0.25 (≈ 0.534 µM)	6.95	3.69
O=C1COc2ncc(N3C[C@H](CNCCc4c(F)ccc5ccc(=O)n(CCO)c45)OC3=O)nc2N1 [Example 20, (S)-6-(5-(((2-(7-fluoro-1-(2-hydroxyethyl)-2-oxo-1,2-dihydroquinolin-8-yl)ethyl)amino)methyl)-2-oxooxazolidin-3-yl)-2H-pyrazino[2,3-b][1,4]oxazin-3(4H)-one]	7.97	2 (≈ 4.01 µM)	0.5 (≈ 1 µM)	0.125 (≈ 0.251 µM)	0.03 (≈ 0.0602 µM)	0.125 (≈ 0.251 µM)	0.5 (≈ 1 µM)	7.05	< 3.52
Cn1c(=O)ccc2ccc(F)c(CCCNC[C@H]3CN(c4cnc5c(n4)NC(=O)CO5)C(=O)O3)c21 [Example 22, (S)-6-(5-(((3-(7-fluoro-1-methyl-2-oxo-1,2-dihydroquinolin-8-yl)propyl)amino)methyl)-2-oxooxazolidin-3-yl)-2H-pyrazino[2,3-b][1,4]oxazin-3(4H)-one]	8.49	0.015 (≈ 0.0311 µM)	0.25 (≈ 0.518 µM)	0.06 (≈ 0.124 µM)	≤ 0.015	0.03 (≈ 0.0622 µM)	0.06 (≈ 0.124 µM)	7.72	3.89
Cn1c(=O)ccc2ccc(F)c(CCCNC[C@@H]3CN(c4cnc5c(n4)NC(=O)CO5)C(=O)O3)c21 [Example 23, (R)-6-(5-(((3-(7-fluoro-1-methyl-2-oxo-1,2-dihydroquinolin-8-yl)propyl)amino)methyl)-2-oxooxazolidin-3-yl)-2H-pyrazino[2,3-b][1,4]oxazin-3(4H)-one]	8.31	0.015 (≈ 0.0311 µM)	0.25 (≈ 0.518 µM)	0.06 (≈ 0.124 µM)	0.015 (≈ 0.0311 µM)	0.03 (≈ 0.0622 µM)	0.03 (≈ 0.0622 µM)	7.43	4.46
